# Legend:
# WIDR = test system: WIDR; set-up: method as in earlier work; conditions: cited from earlier work
# [1] = test system: Plasmodium falciparum 3D-7 (chloroquine-sensitive strain); assay: In vitro antiplasmodial activity assay, microscopic method, strain 3D-7; format: cell-based
# In short: (§1)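 Sorbitol-synchronized ring-stage parasites at 1% parasitemia, 2% haematocrit in RPMI with 10% human O serum, exposed to compound dilutions in triplicate for 72 h at 37 °C. Parasitemia counted on Giemsa smears (≥1,000 erythrocytes); IC50 from growth inhibition by probit analysis.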
# [2] = test system: Plasmodium falciparum 3D-7; assay: Flow cytometry method (SYBR green I / CD235A-PE); format: cell-based; conditions: 72 hours incubation
# Description: The Plasmodium falciparum strains of 3D-7 were used in this method. The plasmodium synchronized to obtain the ring stage by adding 5% of D-sorbitol. Plasmodium with 1% parasitemia was cultured in a 96-well microplate. The testing compounds were added in duplicate and incubated at 37°C for 72 hours. The samples were centrifuged with a speed of 1000 rpm for 10 minutes and washed twice in 100 μL of phosphate-buffered saline (PBS). Samples were incubated with 50 μL of 1 : 1000 SYBR green I and 20μL of CD235A-PE for 15 minutes at room temperature. Cells were washed and resuspended in PBS. Data were obtained using a FACSCalibur with the acquisition of 1,00,000 events per sample. Initial gating was done with uninfected and unstained erythrocytes to account for erythrocyte autofluorescence. The control plasmodium-infected erythrocyte was referred as 100% growth to calculate the percentage of growth inhibition after treated with testing compound.
# [3] = test system: Plasmodium falciparum FCR-3 (chloroquine-resistant strain); assay: In vitro antiplasmodial activity assay, microscopic method, strain FCR-3; format: cell-based
# In short: as §1
# [4] = test system: formation of β-hematin (heme polymerization); assay: In vitro heme polymerization inhibitory activity (HPIA) assay; format: biochemical
# Description: The heme polymerization inhibitory activity (HPIA) was conducted according to Basilico et al.'s modified method. The 100 μL of 1 mM hematin in 0.2 M NaOH was added into a microtube. […] Distilled water was used as a negative control. The 50 μL solution of glacial acetic acid (pH 2.6) was added into the microtube to initiate the polymerization reaction and incubated at a temperature of 37°C for 24 hours. Microtubes were centrifuged at 8000 rpm for 10 minutes and the supernatant was discarded and then washed three times using the 200 μL dimethyl sulfoxide (DMSO).Then, the deposition of the hematin crystal was dissolved with 200 μL of 0.1 M NaOH and 100 μL of solution was added into the 96-well microplate.
# Absorbance was read using ELISA reader at λ 405 nm. A standard curve was made to illustrate the relationship between the concentration of hematin and its absorbance. The various concentrations of hematin (250; 125; 62.5; 31.25; 15.6; 7.8; and […]) were used to make the standard curve. The heme polymerization inhibition was expressed as IC50, which is the concentration of testing compounds that can inhibit 50% of the formation of β-hematin. The IC50 value was calculated by probit analysis using SPSS software (IBM Corp., Chicago).
compound,measurement,setting,value
"O=c1c2c(O)cccc2oc2cc(O)cc(O)c12 [HX1, 1,6,8-trihydroxyxanthone]",cytotoxicity on WIDR (in words),WIDR,weak
same,IC50 on WIDR cell line,WIDR; in vitro cytotoxicity,61.9 µg/mL
same,inhibition at 6.39 µM,"[1]; Plasmodium falciparum, 6.39 μM, read-out: Growth inhibition of P. falciparum Strain 3D-7",47.4 ± 5.86%
same,inhibition at 12.8 µM,"[1]; Plasmodium falciparum, 12.8 μM, read-out: Growth inhibition of P. falciparum Strain 3D-7",61.5 ± 0.71%
same,inhibition at 25.59 µM,"[1]; Plasmodium falciparum, 25.59 μM, read-out: Growth inhibition of P. falciparum Strain 3D-7",64.7 ± 0.861%
same,inhibition at 51.19 µM,"[1]; Plasmodium falciparum, 51.19 μM, read-out: Growth inhibition of P. falciparum Strain 3D-7",69 ± 0.888%
same,inhibition at 102.38 µM,"[1]; Plasmodium falciparum, 102.38 μM, read-out: Growth inhibition of P. falciparum Strain 3D-7",75.86 ± 0.471%
same,IC50,"[1]; Plasmodium falciparum, 72 hours incubation, microscopic method, read-out: IC50 on P. falciparum 3D-7",6.1 ± 2.01 µM
same,antiplasmodial activity category on P. falciparum 3D-7,[1]; category by IC50,good (good (IC50 1–20 μM))
same,inhibition activity of P. falciparum 3D-7 growth (flow cytometry),[2]; 102.38 μM,showed inhibition activity
same,inhibition at 204.75 µM,"[2]; Plasmodium falciparum, 204.75 μM, read-out: inhibition activity of P. falciparum 3D-7 growth (flow cytometry)",> 90%
same,inhibition at 6.39 µM,"[3]; Plasmodium falciparum, FCR3, 6.39 μM, read-out: Growth inhibition of P. falciparum Strain FCR-3",50.9 ± 2.31%
same,inhibition at 12.8 µM,"[3]; Plasmodium falciparum, FCR3, 12.8 μM, read-out: Growth inhibition of P. falciparum Strain FCR-3",55.2 ± 3.59%
same,inhibition at 25.59 µM,"[3]; Plasmodium falciparum, FCR3, 25.59 μM, read-out: Growth inhibition of P. falciparum Strain FCR-3",60.2 ± 2.74%
same,inhibition at 51.19 µM,"[3]; Plasmodium falciparum, FCR3, 51.19 μM, read-out: Growth inhibition of P. falciparum Strain FCR-3",64.4 ± 0.671%
same,inhibition at 102.38 µM,"[3]; Plasmodium falciparum, FCR3, 102.38 μM, read-out: Growth inhibition of P. falciparum Strain FCR-3",73.7 ± 4.28%
same,IC50,"[3]; Plasmodium falciparum, FCR3, 72 hours incubation, microscopic method, read-out: IC50 on P. falciparum FCR-3",6.76 ± 2.38 µM
same,antiplasmodial activity category on P. falciparum FCR-3,[3]; category by IC50,good (good (IC50 1–20 μM))
same,IC50,"[4]; 24 hours, 37°C, glacial acetic acid pH 2.6",2850 µM
same,Inhibition of β-hematin,[4]; compound 1.269 mM,33.901%
same,β-Hematin formed,[4]; compound 1.269 mM,72.500 mM
same,Inhibition of β-hematin,[4]; compound 2.580 mM,49.149%
same,β-Hematin formed,[4]; compound 2.580 mM,55.776 mM
same,Inhibition of β-hematin,[4]; compound 5.119 mM,50.359%
same,β-Hematin formed,[4]; compound 5.119 mM,54.448 mM
same,Inhibition of β-hematin,[4]; compound 10.238 mM,86.893%
same,β-Hematin formed,[4]; compound 10.238 mM,14.376 mM
same,Inhibition of β-hematin,[4]; compound 20.475 mM,91.171%
same,β-Hematin formed,[4]; compound 20.475 mM,9.684 mM
